Measurements: patent US20260053799A1, “COMPOUNDS FOR TREATING CANCER” (EVEXTA BIO, priority 2022, published 2026)
Entries after “also recorded” stand apart in the source; their conditions may differ.

Tests used:
MCF7 tumors = experiment: Antitumor efficacy in xenograft model of SCID-CB17 mice implanted with MCF7 cells; format: in vivo; settings: per os, qd 5 weeks
Description: Antitumor efficacy of anticancer compounds in a xenograft model of SCID-CB17 mice implanted with MCF7 cells, and assessment of the substrates phosphorylation.
MCF7 cells are amplified in vitro in complete medium prior implantation. 24h prior cells injection, the mice are implanted with an estrogen pellet (Innovative Research of America at 0.18 mg/pellet).
On the day of injection, cells are harvested, counted thanks to a trypan blue viability dye (acceptability cut-off ≥80% viability), and resuspended in 50:50 PBS:Matrigel at the appropriate concentration. The cells are then injected subcutaneously in the right flank at 5.10^6 cells/mouse in 200 μL PBS:Matrigel within 30 minutes after harvesting, in 120 mice. […]
In order to assess the effectiveness of the compounds on tumorigenesis, tumor volume are measured twice per week for 8 weeks and mice are weighed once per week for 8 weeks.
The sizes of the primary tumors are measured using calipers and the tumor volume (TV) is extrapolated to a sphere using the formula TV=4/3π×r3, by calculating the mean radius from the two measurements. […]

[1] = Plasma and brain concentration after dosing (blood brain barrier crossing), Table A; format: in vivo; settings: for Concentration: dose 25 mg/kg, administered orally
Source text: The present disclosure also encompasses the advantageous therapeutic use of a quinazoline carboxamide azetidine compound, preferably of 4-[(S)-2-Azetidin-1-yl-1-(4-chloro-3-trifluoromethyl-phenyl)-ethylamino]-quinazoline-8-carboxylic acid amide (M2698) or a pharmaceutically acceptable polymorph, enantiomer, stereoisomer, salt, solvate or tautomer thereof, for treating a metastasized cancer, e.g., a cancer that has spread to the brain, a bone, a lung, the liver, or the central nervous system.

[2] = Machl et al., 2016; cited from earlier work
[3] = tested on: ER+ and HER2+breast cancer; settings: patients, cited from earlier work

SMILES | MCF7 tumor growth (tumor volume) (MCF7 tumors; Elacestrant 50 mg/kg/day) | Concentration ([1]; Brain) | Concentration ([1]; Plasma) | Ability to cross the blood brain barrier ([1]; administered orally at 25 mg/kg of body weight) | MCF7 tumor growth (tumor volume) (MCF7 tumors; M2698 20 mg/kg/day, 20 mg/kg/day) | Crosses the blood-brain barrier [2] | Tolerability ([3]; monotherapy and combined with trastuzumab or tamoxifen) | Efficacy of monotherapy ([3]; monotherapy)
CCNCCc1ccc(CN(CC)c2cc(OC)ccc2[C@@H]2CCc3cc(O)ccc3C2)cc1 [Elacestrant, (R)-6-(2-(ethyl(4-(2-(ethylamino)ethyl)benzyl)amino)-4-methoxyphenyl)-5,6,7,8-tetrahydronaphthalen-2-ol, reference compound] | weakly inhibited | – | – | – | – | – | – | –
NC(=O)c1cccc2c(N[C@H](CN3CCC3)c3ccc(Cl)c(C(F)(F)F)c3)ncnc12 [M2698, 4-[(S)-2-Azetidin-1-yl-1-(4-chloro-3-trifluoromethyl-phenyl)-ethylamino]-quinazoline-8-carboxylic acid amide] | – | 4000 ng/mL | 1600 ng/mL | able to cross the blood brain barrier | strong antitumor efficacy; also recorded: strongly inhibited tumor growth | crosses the blood-brain barrier | well tolerated | modest
